Data from patent US6333340A, “Small molecule sulfonamides for vision and memory disorders” (Gpi Nil Holdings, Inc., priority 1998, dated 2001).

Columns and labels:
[1] = system: retinal ganglion cells; experiment: Optic nerve transection, retinal ganglion cell survival (Fluoro-gold counts); format: in vivo, Sprague Dawley rats; details: for RGC Counts: mean density + SEM in 400 μm sample gridfields
Text: All eyes and optic nerves stumps were removed.
^1 Mean density + SEM of Fluoro-gold labeled retinal ganglion cells
(RGC) in 400 μm […] sample gridfields.

[2] = system: optic nerve axons and myelin; experiment: Retinal ischemia, degeneration of optic nerve axons and myelin (toluidine blue); format: in vivo, rat
[3] = biological target: FKBP12 (Homo sapiens, UniProt P62942); experiment: Inhibition of peptidyl-prolyl isomerase (rotamase) activity of FKBP, chymotrypsin-coupled assay; format: biochemical; details: Table V; read-out: Ki rotomase
Text: The inhibition of the prolyl peptidyl cis-trans isomerase activity of FKBP may be measured as an indicator of this affinity.
Inhibition of the peptidyl-prolyl isomerase (rotamase) activity of the compounds used in the inventive methods and pharmaceutical compositions can be evaluated by known methods described in the literature (Harding et al., Nature, 1989, 341:758-760; Holt et al. J. Am. Chem. Soc., 115:9923-9938). These values are obtained as apparent Ki 's and are presented for representative compounds in TABLE B.
The cis-trans isomerization of an alanine-proline bond in a model substrate, N-succinyl-Ala-Ala-Pro-Phe-p-nitroanilide, is monitored spectrophotometrically in a chymotrypsin-coupled assay, which releases para-nitroanilide from the trans form of the substrate. The inhibition of this reaction caused by the addition of different concentrations of inhibitor is determined, and the data is analyzed as a change in first-order rate constant as a function of inhibitor concentration to yield the apparent Ki values.
In a plastic cuvette are added […] of ice cold assay buffer (25 mM HEPES, pH 7.8, 100 mM NaCl), 10 mL of FKBP (2.5 mM in 10 mM Tris-Cl pH 7.5, 100 mM NaCl, 1 mM dithiothreitol), 25 mL of chymotrypsin (50 mg/ml in 1 mM HCl) and […] of test compound at various concentrations in dimethyl sulfoxide. The reaction is initiated by the addition of 5 mL of substrate (succinyl-Ala-Phe-Pro-Phe-para-nitroanilide, 5 mg/mL in 2.35 mM LiCl in trifluoroethanol).
The absorbance at 390 nm versus time is monitored for 90 seconds using a spectrophotometer and the rate constants are determined from the absorbance versus time data files.

[4] = system: retinal ganglion cells; experiment: Optic nerve transection, ganglion cell survival and axonal dying back (Example 16); format: in vivo, Sprague Dawley rats; details: 10 mg/kg/day s.c. for 28 days; 90 days after transection
Text: Transection of the mammalian optic nerve results in a brief period of abortive regeneration, but the majority of axotomized neurons die and the axons from many persisting ganglion cells die back beyond the optic nerve head.

[5] = system: neurite outgrowth; experiment: Neurite outgrowth in culture; format: cell-based
[6] = 14 days treatment, 90 days after ONT
[7] = 28 days treatment, 90 days after ONT
[8] = 28 days after 1 hour retinal ischemic episode

Sequence of FKBP12 (P62942 whole entry): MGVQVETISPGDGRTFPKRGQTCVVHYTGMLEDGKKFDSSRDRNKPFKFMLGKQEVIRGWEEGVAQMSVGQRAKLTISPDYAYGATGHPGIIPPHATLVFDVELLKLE

CCC(C)(C)C(=O)C(=O)N1CCC[C@H]1C(=O)OCCCc1cccnc1 [GPI 1046]
% RGCs Rescued [1, 6]: 5.3%
Spared RGC population [1, 6]: 20,275
RGC Counts [1, 6]: 49 ± 5.3
density of retinal ganglion cells that survived ([1]; 14 days treatment, 90 days after transection, in words): small but not significant increase
% RGCs Rescued (protection of the vulnerable ganglion cell population) [1, 7]: 12.6%
Spared RGC population [1, 7]: 28,096
RGC Counts [1, 7]: 67.9 ± 5.8
effect on retinal ganglion cells following Optic Nerve Transection ([1]; FIG. 10): neuroprotective effect
protection of the vulnerable ganglion cell population, in words ([1]; first 28 days after transection): moderate but significant protection
density of degenerating myelin figures [2, 8]: dramatically decreased the density of degenerating myelin figures
protection of optic nerve axons from degeneration [2, 8]: protected the majority of optic nerve axons from degeneration
protection of optic nerve element from ischemic degeneration ([2]; retinal ischemia): dramatic protection of optic nerve element from ischemic degeneration
Ki [3]: 7.5 nM
perikaryal neuroprotection [4]: moderate degree of perikaryal neuroprotection
preservation of axons of protected neurons in the proximal stump [4]: preserved the axons of virtually all protected neurons
sparing of the ganglion cell population [4]: 25%
neurite outgrowth in culture [5]: enhances neurite outgrowth in culture
